Assay results reported in article doi:10.1101/2021.10.25.465661v1 (biorxiv, 2021).

Target: T1, Q-eTud34 (Drosophila melanogaster, UniProt Q9VE55)
T1 sequence (Q9VE55 959-1515): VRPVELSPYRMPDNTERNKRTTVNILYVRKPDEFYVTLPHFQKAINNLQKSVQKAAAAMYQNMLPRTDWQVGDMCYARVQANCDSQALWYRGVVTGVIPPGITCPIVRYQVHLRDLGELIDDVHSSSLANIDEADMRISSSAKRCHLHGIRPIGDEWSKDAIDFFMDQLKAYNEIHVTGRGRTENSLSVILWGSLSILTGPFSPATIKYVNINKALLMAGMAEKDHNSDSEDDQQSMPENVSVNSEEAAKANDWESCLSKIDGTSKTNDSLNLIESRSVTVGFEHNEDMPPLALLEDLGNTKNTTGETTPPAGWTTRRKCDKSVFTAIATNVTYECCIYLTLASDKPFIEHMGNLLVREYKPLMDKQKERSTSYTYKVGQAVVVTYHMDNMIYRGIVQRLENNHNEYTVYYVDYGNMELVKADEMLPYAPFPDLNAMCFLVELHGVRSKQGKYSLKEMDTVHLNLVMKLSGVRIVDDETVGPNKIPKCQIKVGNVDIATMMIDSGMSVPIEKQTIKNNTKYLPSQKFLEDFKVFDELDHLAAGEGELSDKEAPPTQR
Test: thermal shift assay
Assay type: binding
Conditions: read-out: Tm increase at 10 mM

ΔTm at 10000 µM: 0.9 °C
SMILES: CN(C)C(=N)NCCC[C@H](N)C(=O)O [aDMA]
